Here are results for 10 molecules from US20260306452A1, “5-METHOXY-N,N-DIMETHYLTRYPTAMINE (5-MEO-DMT) PHARMACEUTICAL COMPOSITIONS” (Beckley Psytech Limited, priority 2023, published 2026).

A short description of data set [1]: Hygroscopicity / water uptake. Format: physicochemical. The following applies: for total water uptake: between 0% RH and 90% RH at 25° C. As to the method: (§1) In an embodiment, the 5-MeO-DMT is administered as a crystalline form of the benzoate salt. Crystalline forms of the benzoate salt are disclosed in WO2021250434 and are incorporated herein. Crystalline forms of the hydrochloride salt are also disclosed in WO2021250434 and are incorporated herein. In an embodiment, crystalline 5-MeO-DMT hydrochloride is characterised by peaks in an X-ray powder diffraction (XRPD) diffractogram at 2θ values of 9.2°±0.1°, 12.2°±0.1°, 14.1°±0.1°, 15.0°±0.1°, 18.5°±0.1°, and 19.5°±0.1°, as measured using an X-ray wavelength of 1.5406 Å. In an embodiment, the 5-MeO-DMT salt is a non-hygroscopic salt. […] The non-hygroscopic, highly soluble HBr salt of 5-MeO-DMT therefore affords the advantage of removing the need for costly and burdensome processing measures, for example the need for low humidity manufacturing environment.

A further data set in a line: Solubility of salts. The note with it: compared to moderately hygroscopic salts, e.g. benzoate or oxalate. Format: physicochemical. As to the method: as §1
Data set [2] is classed as in vivo, human (healthy subjects). The method, then:
A double-blind, randomised, Phase 1, single ascending dose study to evaluate the safety, tolerability and pharmacokinetic profile of intranasal 5-MeO-DMT benzoate in healthy subjects was performed.

Data set [3] in a line: 30-item Mystical Experience Questionnaire (MEQ30), mystical / peak experience. Format: in vivo, human. From the text:
The MEQ30 is a self-report measure that has been used to measure mystical-type experiences in studies of psychedelics. It is known that the occurrence of a mystical experience, following treatment with a psychedelic, is a primary predictor of therapeutic outcomes in patients. Typically, a complete mystical experience is defined as scoring 60% or more on all four factors of the MEQ30. The four factors of the MEQ30 are: mystical, positive mood, transcendence of time and space, and ineffability. Subjects being treated with the 5-MeO-DMT salt are coached prior to dosing, but nevertheless for some subjects, a rapid onset of an intense Mystical Experience can be unsettling. In such a scenario, the medical practitioners and associated support system is also put under an additional monitoring and care load. So, the frequency/likelihood of rapid onset of an intense Mystical Experience using the 5-MeO-DMT salt should be minimised or substantially eliminated.
Each quadrant of a pie is fully coloured if a value equal to or greater than 3 is reached for that dimension (wherein the four quadrants represent the four factors of the MEQ30: mystical, positive mood, transcendence of time and space, and ineffability). Each pie represents a single individual who received the respective dose. It can be seen that the 4/6 individuals who received 12 mg total dose of 5-MeO-DMT benzoate in a biphasic fashion achieved mystical experiences, which represents a 66% success rate.

Data set [4] in a line: Subjective Dose Intensity (SDI) / duration of the trip. The class given is in vivo, human.
Data set [5] is classed as in vivo, human. From the text:
For example, some subjects report nasal discomfort when treated with a single intranasal dose of a salt of 5-MeO-DMT. Additionally, some subjects experienced nausea and vomiting when given a higher single dose of a salt of 5-MeO-DMT. So, the frequency/likelihood of physical discomfort when using the 5-MeO-DMT salt should be minimised or substantially eliminated.

A short description of a further data set: Irritation tolerability. The note with it: in particular compared to the chloride salt.
Data set [6] can be described thus: Phase 1 single ascending dose study, intranasal 5-MeO-DMT HCl, plasma pharmacokinetics. Format: in vivo, human (healthy subjects). As to the method:
In an embodiment, there is provided a dose-proportional salt of 5-MeO-DMT for use in the methods disclosed herein. In an embodiment, the dose-proportional salt of 5-MeO-DMT is the benzoate salt. A double-blind, randomised, Phase 1, single ascending dose study to evaluate the safety, tolerability and pharmacokinetic profile of intranasal 5-MeO-DMT HCl (5-MeO-DMT HCl, HPMC, water for injection (WFI) and a sodium hydroxide solution to adjust pH) in healthy subjects was performed.

[7] abbreviates: 6 mg intranasal, single nostril.
Where [8] appears, read: 8 mg intranasal, single nostril.
[9] abbreviates: 10 mg intranasal, single nostril.
[10] abbreviates: 12 mg (biphasic): 4 mg one nostril then 8 mg other nostril.
The mark [11] stands for this setting: 12 mg biphasic vs 12 mg monophasic.
The mark [12] stands for this setting: 12 mg intranasal, single nostril (monophasic).
Where [13] appears, read: 12 mg total dose, biphasic (4 mg + 8 mg).

Structures are written as SMILES. Where a name gives a salt, the structure may show the parent alone. Read-outs that look alike come from different tables or passages of the source. Where only a bound is given, the exact number is not on record here.

As for `COc1ccc2[nH]cc(CCN(C)C)c2c1.O=C(O)C(=O)O` [5-MeO-DMT oxalate], the hygroscopicity entry in [1] was “moderately hygroscopic”.
Take `Br.COc1ccc2[nH]cc(CCN(C)C)c2c1` [5-MeO-DMT hydrobromide]: the hygroscopicity result in [1] is on record as “substantially non-hygroscopic”. In addition, the solubility result in “Solubility of salts” is given as “high solubility”.
As for `COc1ccc2[nH]cc(CCN(C)C)c2c1.O=C(O)c1ccccc1` [5-MeO-DMT benzoate, 5-methoxy-N,N-dimethyltryptamine (5-MeO-DMT) Benzoate], the AUC inf in data set [2] (4 mg intranasal) worked out at 5.0 ng·h/mL; in data set [2] (setting [7]), 9.8 ng·h/mL; in data set [2] (setting [8]), 14 ng·h/mL; in data set [2] (setting [9]) it was 15.4 ng·h/mL; in data set [2] (setting [10]) it was 10.7 ng·h/mL; in data set [2] (setting [12]), 23 ng·h/mL. Besides, the Cmax in data set [2] (4 mg intranasal) amounted to 8.7 ng/mL; in data set [2] (setting [7]) it was 14.9 ng/mL; in data set [2] (setting [8]), 22.1 ng/mL; in data set [2] (setting [9]) it was 32.3 ng/mL; in data set [2] (setting [10]), 16.7 ng/mL; in data set [2] (setting [12]), 28.9 ng/mL. For the same molecule, the Tmax was found to be 7.0 min in data set [2] (4 mg intranasal); 9.0 min in [2] (setting [7]); 10.6 min in data set [2] (setting [8]); 8.4 min in data set [2] (setting [9]); 27 min in [2] (setting [10]); 15.3 min in data set [2] (setting [12]). Moreover, the T½ in [2] (4 mg intranasal) was 22.4 min; in [2] (setting [7]), 22.2 min; in data set [2] (setting [8]), 17.7 min; in [2] (setting [9]), 22.7 min; in data set [2] (setting [10]), 16.1 min; in data set [2] (setting [12]), 26.6 min. In data set [2] (setting [11]), the “peak plasma concentration, comparison” value is “lower peak plasma concentration”. For the same molecule, in data set [2] (setting [11]), the “rise to peak mean plasma concentration” value is given as “slower rise to peak mean plasma concentration”. The “mean Cmax” value in data set [2] (12 mg dosage, intranasal) came to 29 ng/mL. Besides, in [2] (biphasic administration), the “observed peak plasma concentration vs prediction” value is “significantly lower than that which was expected”. For the same molecule, in [2] (intranasal, healthy subjects), the “dose linearity of pharmacokinetics” value is recorded as “approximately dose linear”. In addition, the efficacy result in [3] (4 mg first dose followed by 8 mg second dose) is on record as “good efficacy”. Moreover, the “Peak exp. (%)” value in data set [3] (4 mg intranasal) is 0%; in data set [3] (setting [7]), 25%; in [3] (setting [8]) it was 20%; in data set [3] (setting [9]), 60%; in data set [3] (setting [10]) it was 66%; in data set [3] (setting [12]) it was 60%. Also, the “% peak experience, comparison” value in data set [3] (12 mg biphasic vs other doses) is recorded as “the highest % peak experience”. In addition, the “individuals who achieved mystical experiences” value in data set [3] (setting [13]) is reported as 4/6. For the same molecule, the “success rate (mystical experiences, MEQ30)” value in data set [3] (setting [13]) worked out at 66%; in [3] (singular 10 mg dose), 60%; in [3] (singular 12 mg dose), 60%. For the same molecule, the MEQ30 score in data set [3] (single intranasal dose) is > 3. In addition, the “Duration of the trip (estimate based on intensity)” value in data set [4] (4 mg intranasal) is 18 min; in data set [4] (setting [7]), 31 min; in data set [4] (setting [8]), 40 min; in data set [4] (setting [9]) it was 46 min; in [4] (setting [10]) it was 70 min; in data set [4] (setting [12]) it was 50 min. Further, in data set [4] (setting [11]), the “length of psychedelic experience, comparison” value is “longer psychedelic experience”. Besides, the “duration of ‘trip’, comparison” value in data set [4] (12 mg biphasic vs other doses) was “longer duration of ‘trip’”. In addition, the “subjective intensity/mystical experience despite lower peak plasma concentration” value in [4] (biphasic administration) was “did not result in a lower subjective intensity/mystical experience”. In addition, the “Vomiting (% subj. incl. PBO)” value in [5] (4 mg intranasal) was 33%; in data set [5] (setting [7]) it was 0%; in data set [5] (setting [8]), 0%; in data set [5] (setting [9]) it was 0%; in [5] (setting [10]) it was 17%; in data set [5] (setting [12]) it was 29%. Also, the overall tolerability profile result in data set [5] (intranasal) is “good (and better than the corresponding and better known chloride salt)”. Moreover, in data set [1], the hygroscopicity result is “moderately hygroscopic”. Besides, in the data set “Stability profile”, the stability profile entry is “good stability profile”. Also, the irritation tolerability entry in “Irritation tolerability” was “good irritation tolerability”.
Consider `COc1ccc2[nH]cc(CCN(C)C)c2c1` [5-MeO-DMT tartrate], for which, in data set [1], the total water uptake result is reported as “approximately 3.3 % w/w”. In addition, in [1] (listed as tartrate salt of 5-MeO-DMT), the hygroscopicity result is “moderately hygroscopic”.
As to `COc1ccc2[nH]cc(CCN(C)C)c2c1` [5-MeO-DMT phosphate], the hygroscopicity result in data set [1] (listed as phosphate salt) is “slightly hygroscopic”.
As to `COc1ccc2[nH]cc(CCN(C)C)c2c1` [5-MeO-DMT tosylate], the total water uptake result in [1] is “approximately 1.9 % w/w”. The hygroscopicity result in [1] (listed as tosylate salt) is listed as “slightly hygroscopic”.
On to `COc1ccc2[nH]cc(CCN(C)C)c2c1` [5-MeO-DMT, 5-methoxy-N,N-dimethyltryptamine], for which the “shape of mean plasma concentration curve” value in [2] (biphasic administration) is “m-like biphasic curve”.
On to `COc1ccc2[nH]cc(CCN(C)C)c2c1.Cl` [5-MeO-DMT HCl], for which the “mean concentration profiles between doses” value in [6] (5 mg, 8 mg, 10 mg, 11 mg and 14 mg intranasal) is on record as “substantially similar”. The dose-proportional pharmacokinetics result in [6] (intranasal, healthy subjects) is reported as “does not display dose-proportional pharmacokinetics”.
On to `COc1ccc2[nH]cc(CCN(C)C)c2c1` [5-MeO-DMT ketoglutarate], for which the “rapid increase of water uptake” value in data set [1] (90% RH) turned out to be 28.140 w/w. Further, the “gradual water uptake, lower humidity” value in data set [1] (403RH as printed) came to 0.13 % w/w. For the same molecule, the “gradual water uptake, upper humidity” value in [1] (801 RH as printed) was 2.55 w/w.
Take `CN(C)CCc1c[nH]c2ccc(O)cc12` [Bufotenin]: the “detection of the O-demethylated metabolite in plasma” value in [2] (6 mg dose level of 5-MeO-DMT benzoate, after the 16 minutes time point) is “only detected at very low levels”.

As a reminder, the Cmax is the peak of the concentration-time curve. In general, Tmax refers to the time from dosing to the highest level.
